# Source: US20240124456A1, “AZA-ERGOLINE DERIVATIVE AND PREPARATION METHOD THEREFOR AND APPLICATION THEREOF” (SHANGHAITECH UNIVERSITY, priority 2021, published 2024)
# How the values were obtained:
# Type in all cases: in vivo
# C57B6 male mice [1] = assay: Morris water maze, MK801 recognition impairment model; conditions: for Platform exploration time / Times of crossing platform area: MK801 model; for Times of crossing platform area: probe trial
# Method: The experimental animals were C57B6 male mice, n=8 in each group. Firstly, mice were intraperitoneally injected with 0.2 mg/kg of MK801 twice a day for ten consecutive days to establish a recognition impairment model, and control mice were intraperitoneally injected with normal saline containing the same amount of DMSO, and then the mice were subjected to the Morris water maze test.
# Experimental setup: Experiments were conducted in a blue circular water reservoir with a diameter of 130 cm. The reservoir was filled with pure water about 30 cm deep. The reservoir was divided into 4 fan-shaped areas by a cross, and the escape platform (6 cm in diameter) was located in the center of one of the fan-shaped areas and was hidden 0.5 cm below the water surface. The position where the mice entered the water was fixed at the edges of the other three fan-shaped areas. The position where the mice entered the water was basically consistent with the straight-line distance of the platform.
# Acquisition phase: 30 minutes before the start of the experiment, the mice were administered intraperitoneally. After the experiment started, the mouse was put into the water with its head facing the reservoir wall, and the placement position was randomly selected from one of the three starting positions in the east, west, and south, and the underwater hidden platform was located in the north quadrant. The time taken by the mouse to find the underwater platform was recorded. […] Then the above steps were repeated 2 times at another starting position. Each animal was trained three times a day for 5 consecutive days.
# Probe trial: on the second day after the last acquisition phase, the platform was removed and a 60-second probe trial began. The animal was placed in the water from the opposite side of the original platform quadrant. The number of times the animal crossed the original platform location was recorded as a detection index of spatial memory. Data statistics were carried out using Student-t-test, p<0.05 was *, p<0.01 was **, p<0.001 was ***, p<0.0001 was ****.
# C57B6 male mice [2] = assay: Old and novel object recognition, MK801 recognition impairment model; conditions: for Distinguishing index (DI): MK801 (0.3 mg/kg) 14 injections in 7 days, 7 days recovery
# Method: The experimental animals were C57B6 male mice, n=8 in each group. Firstly, mice were intraperitoneally injected with MK801 at 0.3 mg/kg twice a day for seven consecutive days to establish a recognition impairment model, and control mice were intraperitoneally injected with normal saline containing the same amount of DMSO. The mice then underwent a seven-day recovery in home cages. After the recovery period expired, the old and novel object distinguishing experiment was performed on the mice to determine the effect of the compounds on the recognition ability of the mice.
# Novel and old object recognition experiment: The experiment was carried out in a low-light environment. Before the experiment started, the mice were placed in the experimental field in advance and adapted to the environment for one hour in the low-light environment. After environmental adaptation, the mice were administered intraperitoneally. 30 minutes after the administration, the mice were put in an open field (diameter of the open field of 40 cm) in which two identical objects had been placed beforehand. The mice explored freely in the open field for 10 minutes, and then were removed from the open field and returned to the cage. After a one-hour interval, the mice returned to the open field, where an old object and a novel object were placed in advance in the same position in the open field. Again, the mice explored freely in the open field for 10 minutes. The distinguishing time of the mice for the old object and the novel object was recorded separately and the distinguishing index was calculated. The calculation method of the distinguishing index was (exploration time for novel object−exploration time for old object)/(exploration time for novel object+exploration time for old object). Object exploration by the mice was defined as sniffing, climbing, and direct contact with the object. Data statistics were carried out using Student-t-test, p<0.05 was *, p<0.01 was **, p<0.001 was ***, p<0.0001 was ****.
# C57B6 male mice [3] = assay: Freezing behavior test; conditions: 10 mg/kg
# Method: Experimental method: The experimental animals were C57B6 male mice, n=8 in each group. Mice were first injected with different compounds, and after a certain period of time (30 min or 60 min), the mice were in an upright and unnatural state by placing their forelimbs on a high glass hanging rod (about 5 cm from the ground). Then the time for the mice to maintain this state was measured, and the length of time was used to determine the freezing effect of the drug on the mice.
compound,measurement,setting,value
CN(C)C(=O)N[C@H]1CC[C@H](CCN2CCN3c4cccc5[nH]cc(c45)C[C@H]3C2)CC1 [(−)-I-10],improvement of MK801-induced spatial recognition impairment (in words),C57B6 male mice [1]; 0.1 mg/kg,significantly improve
same,improvement of MK801-induced memory impairment (in words),C57B6 male mice [1]; 0.1 mg/kg and 0.025 mg/kg,significantly improve
same,Platform exploration time,"C57B6 male mice [1]; fifth day, 0.00625 mg/kg",97.94 s
same,Platform exploration time,"C57B6 male mice [1]; fifth day, 0.025 mg/kg",92.23 s
same,Platform exploration time,"C57B6 male mice [1]; fifth day, 0.1 mg/kg",62.86 s
same,Platform exploration time,"C57B6 male mice [1]; first day, 0.00625 mg/kg",173.0 s
same,Platform exploration time,"C57B6 male mice [1]; first day, 0.025 mg/kg",161.2 s
same,Platform exploration time,"C57B6 male mice [1]; first day, 0.1 mg/kg",146.2 s
same,Platform exploration time,"C57B6 male mice [1]; fourth day, 0.00625 mg/kg",87.77 s
same,Platform exploration time,"C57B6 male mice [1]; fourth day, 0.025 mg/kg",96.66 s
same,Platform exploration time,"C57B6 male mice [1]; fourth day, 0.1 mg/kg",68.62 s
same,Times of crossing platform area,C57B6 male mice [1]; 0.00625 mg/kg,2.600
same,Times of crossing platform area,C57B6 male mice [1]; 0.025 mg/kg,4.500
same,Times of crossing platform area,C57B6 male mice [1]; 0.1 mg/kg,5.800
same,Platform exploration time,"C57B6 male mice [1]; second day, 0.00625 mg/kg",145.3 s
same,Platform exploration time,"C57B6 male mice [1]; second day, 0.025 mg/kg",154.0 s
same,Platform exploration time,"C57B6 male mice [1]; second day, 0.1 mg/kg",128.5 s
same,Platform exploration time,"C57B6 male mice [1]; third day, 0.00625 mg/kg",108.1 s
same,Platform exploration time,"C57B6 male mice [1]; third day, 0.025 mg/kg",96.66 s
same,Platform exploration time,"C57B6 male mice [1]; third day, 0.1 mg/kg",88.38 s
same,improvement of MK801-induced recognition impairment (in words),C57B6 male mice [2]; 0.1 mg/kg and 0.025 mg/kg,significantly improve
same,Distinguishing index (DI),C57B6 male mice [2]; 0.00625 mg/kg,0.05971 ± 0.03658
same,Distinguishing index (DI),C57B6 male mice [2]; 0.025 mg/kg,0.3320 ± 0.06367
same,Distinguishing index (DI),C57B6 male mice [2]; 0.1 mg/kg,0.2789 ± 0.04036
same,freezing induction effect on mice (in words),C57B6 male mice [3],no freezing induction effect
same,Freezing time,C57B6 male mice [3]; 30 minutes after administration,2.194 ± 0.2524 s
same,Freezing time,C57B6 male mice [3]; 60 minutes after administration,2.165 ± 0.3256 s
